This assay deals with T1, BRD4 bromodomains (Homo sapiens, UniProt O60885).
T1 construct: fused on or other part: T7 phage capsid protein (phage-display fusion; the phage DNA is read out by qPCR)
The assay is described as follows: BROMOscan bromodomain competition binding assay (DiscoveRx). The note with it: Kd from 11 compound concentrations ranging from 0 to 10 μM, read-out: BROMOscan Relative Activity. Put shortly:
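Compounds in 0.1% DMSO/0.9% MEG competed with a solid-phase acetylated peptide for T7 phage-fused BRD4 bromodomains, with the retained bromodomain measured by qPCR.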

The structures appear in SMILES notation.

Here are results for 31 compounds from patent US11028079B2 (ConverGene LLC, priority 2015, dated 2021).

For the compound `Cn1cc(-c2ccc3nc(-c4cnn(C(C)(C)CO)c4)nc(NCc4cccc(Cl)c4)c3c2)ccc1=O` [Example 105, 5-(4-((3-chlorobenzyl)amino)-2-(1-(1-hydroxy-2-methylpropan-2-yl)-1H-pyrazol-4-yl)quinazolin-6-yl)-1-methylpyridin-2(1H)-one], the Kd is less than 500 nM. The same measure for `Cc1noc(C)c1-c1ccc2nc(-c3c(C)noc3C)nc(NCc3cccc(Cl)c3)c2c1` [Example 70, N-(3-chlorobenzyl)-2,6-bis(3,5-dimethylisoxazol-4-yl)quinazolin-4-amine]: 500 to 5000 nM. The same measure for `Cc1noc(C)c1-c1ccc2nc(N3CCC4(CCNC4=O)CC3)nc(N3CCOC[C@@H]3c3ccccc3)c2c1` [Example 329, (S)-8-(6-(3,5-dimethylisoxazol-4-yl)-4-(3-phenylmorpholino)quinazolin-2-yl)-2,8-diazaspiro[4.5]decan-1-one]: less than 500 nM. Turning to `CCNC(=O)N1CCN(c2nc(N3CCOC[C@@H]3c3ccccc3)c3cc(-c4c(C)noc4C)ccc3n2)CC1` [Example 299, (S)-4-(6-(3,5-dimethylisoxazol-4-yl)-4-(3-phenylmorpholino)quinazolin-2-yl)-N-ethylpiperazine-1-carboxamide], the Kd is less than 500 nM.

In the case of `Cc1noc(C)c1-c1ccc2nc(-c3cnn(CCO)c3)nc(N3CCOC[C@@H]3c3ccccc3)c2c1` [Example 306, (S)-2-(4-(6-(3,5-dimethylisoxazol-4-yl)-4-(3-phenylmorpholino)quinazolin-2-yl)-1H-pyrazol-1-yl)ethan-1-ol], the Kd was less than 500 nM. The value for `Cc1noc(C)c1-c1ccc2nc(C(=O)N3CCc4[nH]ncc4C3)cc(NCc3cccc(Cl)c3)c2c1` [Example 288, (4-((3-chlorobenzyl)amino)-6-(3,5-dimethylisoxazol-4-yl)quinolin-2-yl)(1,4,6,7-tetrahydro-5H-pyrazolo[4,3-c]pyridin-5-yl)methanone] was 500 to 5000 nM; that for `Cc1csc(CNC(=O)c2nc(NCc3cccc(Cl)c3)c3cc(-c4c(C)noc4C)ccc3n2)n1` [Example 214, 4-((3-chlorobenzyl)amino)-6-(3,5-dimethylisoxazol-4-yl)-N-((4-methylthiazol-2-yl)methyl)quinazoline-2-carboxamide] was less than 500 nM. The value for `Cc1noc(C)c1-c1ccc2nc(C(=O)NC3CN(C)C3)nc(NCc3cncc(Cl)c3)c2c1` [Example 237, 4-(((5-chloropyridin-3-yl)methyl)amino)-6-(3,5-dimethylisoxazol-4-yl)-N-(1-methylazetidin-3-yl)quinazoline-2-carboxamide] was less than 500 nM; that for `Cc1noc(C)c1-c1ccc2nc(C(=O)NCc3cncc(F)c3)nc(NCc3cccc(Cl)c3)c2c1` [Example 192, 4-((3-chlorobenzyl)amino)-6-(3,5-dimethylisoxazol-4-yl)-N-((5-fluoropyridin-3-yl)methyl)quinazoline-2-carboxamide] was less than 500 nM.

With `COc1nc(NCc2cccc(Cl)c2)c2cc(-c3c(C)noc3C)ccc2n1` [Example 8, N-(3-chlorobenzyl)-6-(3,5-dimethylisoxazol-4-yl)-2-methoxyquinazolin-4-amine], the Kd was less than 500 nM. The value for `Cc1n[nH]c(C)c1CNC(=O)c1nc(NCc2cccc(Cl)c2)c2cc(-c3c(C)noc3C)ccc2n1` [Example 257, 4-((3-chlorobenzyl)amino)-N-((3,5-dimethyl-1H-pyrazol-4-yl)methyl)-6-(3,5-dimethylisoxazol-4-yl)quinazoline-2-carboxamide] was less than 500 nM; that for `Cn1cc(-c2ccc3nc(N4CCN(CCO)CC4)nc(NCc4cncc(Cl)c4)c3c2)ccc1=O` [Example 126, 5-(4-(((5-chloropyridin-3-yl)methyl)amino)-2-(4-(2-hydroxyethyl)piperazin-1-yl)quinazolin-6-yl)-1-methylpyridin-2(1H)-one] was less than 500 nM. The value for `Cc1oncc1-c1ccc2nc(N3CCN(CCN(C)C)CC3)nc(NCc3cccc(Cl)c3)c2c1` [Example 78, N-(3-chlorobenzyl)-2-(4-(2-(dimethylamino)ethyl)piperazin-1-yl)-6-(5-methylisoxazol-4-yl)quinazolin-4-amine] was 500 to 5000 nM; that for `Cc1noc(C)c1-c1ccc2nc(C(=O)NC3CCS(=O)(=O)CC3)nc(NCc3cncc(Cl)c3)c2c1` [Example 239, 4-(((5-chloropyridin-3-yl)methyl)amino)-6-(3,5-dimethylisoxazol-4-yl)-N-(1,1-dioxidotetrahydro-2H-thiopyran-4-yl)quinazoline-2-carboxamide] was less than 500 nM. As to `Cc1noc(C)c1-c1ccc2nc(N3CCN(C(=O)N(C)C)CC3)nc(NCc3cncc(Cl)c3)c2c1` [Example 248, 4-(4-(((5-chloropyridin-3-yl)methyl)amino)-6-(3,5-dimethylisoxazol-4-yl)quinazolin-2-yl)-N,N-dimethylpiperazine-1-carboxamide], the Kd was less than 500 nM.

`Cc1noc(C)c1-c1ccc2nc(NC3CCN(C)CC3)nc(NCc3cccc(Cl)c3)c2c1` [Example 7, N4-(3-chlorobenzyl)-6-(3,5-dimethylisoxazol-4-yl)-N2-(1-methylpiperidin-4-yl)quinazoline-2,4-diamine]: the Kd was less than 500 nM. The value for `Cc1noc(C)c1-c1ccc2nc(-c3cnn(CC(N)=O)c3)nc(NCc3cccc(Cl)c3)c2c1` [Example 50, 2-(4-(4-((3-chlorobenzyl)amino)-6-(3,5-dimethylisoxazol-4-yl)quinazolin-2-yl)-1H-pyrazol-1-yl)acetamide] was less than 500 nM; that for `CNC(=O)CN1CCN(c2nc(NCc3cncc(Cl)c3)c3cc(-c4ccc(=O)n(C)c4)ccc3n2)CC1` [Example 128, 2-(4-(4-(((5-chloropyridin-3-yl)methyl)amino)-6-(1-methyl-6-oxo-1,6-dihydropyridin-3-yl)quinazolin-2-yl)piperazin-1-yl)-N-methylacetamide] was less than 500 nM; that for `Cc1noc(C)c1-c1ccc2nc(N3CCN(CCN(C)C)CC3)nc(N(C)Cc3cccc(Cl)c3)c2c1` [Example 85, N-(3-chlorobenzyl)-2-(4-(2-(dimethylamino)ethyl)piperazin-1-yl)-6-(3,5-dimethylisoxazol-4-yl)-N-methylquinazolin-4-amine] was less than 500 nM.

As to `Cc1noc(C)c1-c1ccc2nc(N3CCN(CCN(C)C)CC3)nc(NCc3ccccc3)c2c1` [Example 92, N-benzyl-2-(4-(2-(dimethylamino)ethyl)piperazin-1-yl)-6-(3,5-dimethylisoxazol-4-yl)quinazolin-4-amine], the Kd was less than 500 nM. The value for `Cc1noc(C)c1-c1ccc2nc(N3CCN(C(=O)CN(C)C)CC3)nc(NCc3cccc(Cl)c3)c2c1` [Example 37, 1-(4-(4-((3-chlorobenzyl)amino)-6-(3,5-dimethylisoxazol-4-yl)quinazolin-2-yl)piperazin-1-yl)-2-(dimethylamino)ethanone] was less than 500 nM; that for `Cc1csc(CNc2nc(N3CCN(CCN(C)C)CC3)nc3ccc(-c4c(C)noc4C)cc23)c1` [Example 87, 2-(4-(2-(dimethylamino)ethyl)piperazin-1-yl)-6-(3,5-dimethylisoxazol-4-yl)-N-((4-methylthiophen-2-yl)methyl)quinazolin-4-amine] was less than 500 nM.

With `Cc1noc(C)c1-c1ccc2nc(C(=O)NCc3ccncc3Cl)nc(NCc3cccc(Cl)c3)c2c1` [Example 208, 4-((3-chlorobenzyl)amino)-N-((3-chloropyridin-4-yl)methyl)-6-(3,5-dimethylisoxazol-4-yl)quinazoline-2-carboxamide], the Kd is less than 500 nM. For the compound `Cc1noc(C)c1-c1ccc2nc(N3CCN(CCN(C)C)CC3)nc(NCc3cccs3)c2c1` [Example 71, 2-(4-(2-(dimethylamino)ethyl)piperazin-1-yl)-6-(3,5-dimethylisoxazol-4-yl)-N-(thiophen-2-ylmethyl)quinazolin-4-amine], the Kd is less than 500 nM. The same measure for `Cc1noc(C)c1-c1ccc2nc(C(=O)NCc3cncn3C)nc(NCc3cncc(Cl)c3)c2c1` [Example 232, 4-(((5-chloropyridin-3-yl)methyl)amino)-6-(3,5-dimethylisoxazol-4-yl)-N-((1-methyl-1H-imidazol-5-yl)methyl)quinazoline-2-carboxamide]: less than 500 nM. Regarding `Cc1noc(C)c1-c1ccc2nc(N3CCN(CC(C)(C)O)CC3)nc(N3CCOC[C@@H]3c3ccccc3)c2c1` [Example 295, (S)-1-(4-(6-(3,5-dimethylisoxazol-4-yl)-4-(3-phenylmorpholino)quinazolin-2-yl)piperazin-1-yl)-2-methylpropan-2-ol], the Kd is less than 500 nM. With `Cc1noc(C)c1-c1ccc2c(NCc3cccc(Cl)c3)nc(-c3cnn(CC(N)=O)c3)nc2c1` [Example 51, 2-(4-(4-((3-chlorobenzyl)amino)-7-(3,5-dimethylisoxazol-4-yl)quinazolin-2-yl)-1H-pyrazol-1-yl)acetamide], the Kd fell in the range of 500 to 5000 nM.

As for `Cc1noc(C)c1-c1ccc2ncnc(N3CCOCC3c3ccccc3)c2c1` (stereo not shown) [Example 264, 4-(6-(3,5-dimethylisoxazol-4-yl)quinazolin-4-yl)-3-phenylmorpholine], the Kd was less than 500 nM. Take `Cc1noc(C)c1-c1ccc2nc(C(=O)NCc3cnn(C)c3C)nc(NCc3cccc(Cl)c3)c2c1` [Example 190, 4-((3-chlorobenzyl)amino)-N-((1,5-dimethyl-1H-pyrazol-4-yl)methyl)-6-(3,5-dimethylisoxazol-4-yl)quinazoline-2-carboxamide]: the Kd was less than 500 nM.

For `Cc1noc(C)c1-c1ccc2nc(C(=O)N3CCc4[nH]ncc4C3)nc(N3CCOC[C@@H]3c3ccccc3)c2c1` [Example 285, (S)-(6-(3,5-dimethylisoxazol-4-yl)-4-(3-phenylmorpholino)quinazolin-2-yl)(1,4,6,7-tetrahydro-5H-pyrazolo[4,3-c]pyridin-5-yl)methanone], the Kd lay within 500 to 5000 nM. The value for `Cc1noc(C)c1-c1ccc2nc(-c3cnn(CC(C)(C)O)c3)nc(N3CCN(S(C)(=O)=O)C[C@@H]3c3ccccc3)c2c1` [Example 310, (S)-1-(4-(6-(3,5-dimethylisoxazol-4-yl)-4-(4-(methylsulfonyl)-2-phenylpiperazin-1-yl)quinazolin-2-yl)-1H-pyrazol-1-yl)-2-methylpropan-2-ol] was less than 500 nM.
